What is called Ki is the equilibrium dissociation constant of an inhibitor or competing ligand from its target. Lower therefore signals a stronger hold on the target.

Here are results for 26 molecules from patent US20160326142A1, “PYRAZOLE CARBOXAMIDE COMPOUNDS, COMPOSITIONS AND METHODS OF USE” (Genentech, Inc., priority 2012, published 2016).

The test addresses T1, ITK (Homo sapiens, UniProt Q08881).
T1 construct: purchased Invitrogen PV3875
T1 sequence (Q08881 1-620): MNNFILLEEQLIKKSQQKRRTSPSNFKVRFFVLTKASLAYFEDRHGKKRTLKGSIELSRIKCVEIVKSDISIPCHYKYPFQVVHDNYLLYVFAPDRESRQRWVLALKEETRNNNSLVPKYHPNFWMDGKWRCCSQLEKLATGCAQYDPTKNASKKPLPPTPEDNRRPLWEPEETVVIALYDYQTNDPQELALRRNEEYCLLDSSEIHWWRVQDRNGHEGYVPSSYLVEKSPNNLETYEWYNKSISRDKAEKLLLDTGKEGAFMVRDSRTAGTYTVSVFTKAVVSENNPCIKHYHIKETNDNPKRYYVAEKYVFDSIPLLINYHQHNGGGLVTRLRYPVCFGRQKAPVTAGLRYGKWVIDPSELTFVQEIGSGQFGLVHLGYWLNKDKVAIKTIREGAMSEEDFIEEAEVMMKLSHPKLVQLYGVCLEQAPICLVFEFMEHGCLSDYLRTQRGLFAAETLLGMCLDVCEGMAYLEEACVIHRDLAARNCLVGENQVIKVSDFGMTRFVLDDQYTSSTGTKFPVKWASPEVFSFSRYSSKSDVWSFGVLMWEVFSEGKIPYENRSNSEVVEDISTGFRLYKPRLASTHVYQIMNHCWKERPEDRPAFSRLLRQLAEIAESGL
The experiment in a line: ITK enzyme assay (Caliper or LCMS peptide phosphorylation). Type of test: biochemical. As to conditions: purified ITK (Invitrogen PV3875), 20 μM ATP, Ki by Morrison's quadratic equation. In a few lines:
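Ki values come from Morrison quadratic fits of activity versus inhibitor concentration, adjusted for ATP-competitive inhibition against ATP/Km,app. Substrate and phosphopeptide from purified ITK reactions were resolved either microfluidically (Caliper, EDTA stop) or by LC-MS MRM (TCA stop).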
`Cc1cccc(C(C2CNC2)n2cc(NC(=O)c3n[nH]c4c3CCC(C)(C)C4)cn2)c1` (single isomer, unassigned) [Example 47a, N-(1-(azetidin-3-yl(m-tolyl)methyl)-1H-pyrazol-4-yl)-6,6-dimethyl-4,5,6,7-tetrahydro-1H-indazole-3-carboxamide] yielded a Ki of 2 nM.

`CC(c1nccs1)n1cc(NC(=O)c2n[nH]c3c2CCC(C)(C)C3)cn1` (single isomer, unassigned) [Example 92b, 6,6-dimethyl-N-(1-(1-(thiazol-2-yl)ethyl)-1H-pyrazol-4-yl)-4,5,6,7-tetrahydro-1H-indazole-3-carboxamide] returned a Ki of 10 nM.

`CC(c1cncc(F)c1)n1cc(NC(=O)c2n[nH]c3c2CCC(C)(C)C3)cn1` (single isomer, unassigned) [Example 108a, N-(1-(1-(5-fluoropyridin-3-yl)ethyl)-1H-pyrazol-4-yl)-6,6-dimethyl-4,5,6,7-tetrahydro-1H-indazole-3-carboxamide]: affinity was put at a Ki of 17 nM.

`N#Cc1cccc(Cn2cc(NC(=O)c3n[nH]c4c3CCC(c3cn[nH]c3)C4)cn2)c1` (single isomer, unassigned) [Example 1b, N-(1-(3-cyanobenzyl)-1H-pyrazol-4-yl)-6-(1H-pyrazol-4-yl)-4,5,6,7-tetrahydro-1H-indazole-3-carboxamide]: affinity was put at a Ki of 8.3 nM.

Consider `CN1CCC2(CCc3c(C(=O)Nc4cnn(Cc5ccccc5)c4)n[nH]c3C2)C1=O` (centres unmarked) [Example 123b, N-(1-benzyl-1H-pyrazol-4-yl)-1′-methyl-2′-oxo-1,4,5,7-tetrahydrospiro[indazole-6,3′-pyrrolidine]-3-carboxamide], for which the Ki amounted to 4000 nM.

In the case of `CC1(C)CCc2c(C(=O)Nc3cnn(C4COCC4c4ccccc4)c3)n[nH]c2C1` (single isomer, unassigned) [Example 132a, 6,6-dimethyl-N-(1-(4-phenyltetrahydrofuran-3-yl)-1H-pyrazol-4-yl)-4,5,6,7-tetrahydro-1H-indazole-3-carboxamide], affinity was put at a Ki of 77 nM.

With `Cn1cc(C(c2ccccc2)n2cc(NC(=O)c3n[nH]c4c3CC3CC3C4)cn2)cn1` (single isomer, unassigned) [Example 27a, N-(1-((1-methyl-1H-pyrazol-4-yl)(phenyl)methyl)-1H-pyrazol-4-yl)-1,4,4a,5,5a,6-hexahydro cyclopropa[f]indazole-3-carboxamide], affinity was put at a Ki of 30 nM.

The molecule `CC(c1ncco1)n1cc(NC(=O)c2n[nH]c3c2CCC(C)(C)C3)cn1` (single isomer, unassigned) [Example 103a, 6,6-dimethyl-N-(1-(1-(oxazol-2-yl)ethyl)-1H-pyrazol-4-yl)-4,5,6,7-tetrahydro-1H-indazole-3-carboxamide] had a Ki of 20 nM.

In the case of `CC12Cc3[nH]nc(C(=O)Nc4cnn(C(c5cccnc5)C5CC[S+]([O-])CC5)c4)c3CC1C2` (single isomer, unassigned) [Example 146d, 5a-methyl-N-(1-((1-oxidotetrahydro-2H-thiopyran-4-yl)(pyridin-3-yl)methyl)-1H-pyrazol-4-yl)-1,4,4a,5,5a,6-hexahydrocyclopropa[f]indazole-3-carboxamide], the affinity corresponds to a Ki of 2 nM.

On to `CCC(c1cccnc1)n1cc(NC(=O)c2n[nH]c3c2CCC(C)(C)C3)cn1` (single isomer, unassigned) [Example 54a, 6,6-dimethyl-N-(1-(1-(pyridin-3-yl)propyl)-1H-pyrazol-4-yl)-4,5,6,7-tetrahydro-1H-indazole-3-carboxamide], for which the inhibitory constant (Ki) was 1 nM.

`CC1(C)CCc2c(C(=O)Nc3cnn(C(CCC#N)c4cccnc4)c3)n[nH]c2C1` (single isomer, unassigned) [Example 80b, N-(1-(3-cyano-1-(pyridin-3-yl)propyl)-1H-pyrazol-4-yl)-6,6-dimethyl-4,5,6,7-tetrahydro-1H-indazole-3-carboxamide] registered a Ki of 2 nM.

`CC[C@@H](c1ccccc1)n1cc(NC(=O)c2n[nH]c3c2C2CC2CC3)cn1` (single isomer, unassigned) [Example 25a] showed an inhibition constant Ki of 1.7 nM.

Molecule `N#Cc1cccc(Cn2cc(NC(=O)c3n[nH]c4c3CCC(O)C4)cn2)c1` (single isomer, unassigned) [Example 5a, N-(1-(3-cyanobenzyl)-1H-pyrazol-4-yl)-6-hydroxy-4,5,6,7-tetrahydro-1H-indazole-3-carboxamide] returned a Ki of 310 nM.

Regarding `CC12Cc3[nH]nc(C(=O)Nc4cnn(C(c5cccnc5)C5CS(=O)(=O)C5)c4)c3CC1C2` (single isomer, unassigned) [Example 116b, N-(1-((1,1-dioxidothietan-3-yl)(pyridin-3-yl)methyl)-1H-pyrazol-4-yl)-5a-methyl-1,4,4a,5,5a,6-hexahydrocyclopropa[f]indazole-3-carboxamide], the Ki is 2 nM.

Regarding `CN1CCN(CC(c2ccccc2)n2cc(NC(=O)c3n[nH]c4c3CCC(C)(C)C4)cn2)C1=O` (single isomer, unassigned) [Example 131b, 6,6-dimethyl-N-(1-(2-(3-methyl-2-oxoimidazolidin-1-yl)-1-phenylethyl)-1H-pyrazol-4-yl)-4,5,6,7-tetrahydro-1H-indazole-3-carboxamide], the Ki was 11 nM.

`CN(C)CC(c1ccccc1)n1cc(NC(=O)c2n[nH]c3c2CC2CC2(C)C3)cn1` (single isomer, unassigned) [Example 68a, N-(1-(2-(dimethylamino)-1-phenylethyl)-1H-pyrazol-4-yl)-5a-methyl-1,4,4a,5,5a,6-hexahydrocyclopropa[f]indazole-3-carboxamide] had an inhibitory constant (Ki) of 0.2 nM.

In turn, `CC1(C)CCc2c(C(=O)Nc3cnn(C(c4nccs4)C4CCS(=O)(=O)CC4)c3)n[nH]c2C1` (single isomer, unassigned) [Example 87b, N-(1-((1,1-dioxidotetrahydro-2H-thiopyran-4-yl)(thiazol-2-yl)methyl)-1H-pyrazol-4-yl)-6,6-dimethyl-4,5,6,7-tetrahydro-1H-indazole-3-carboxamide] returned a Ki of 1 nM.

Regarding `CC(=O)N1CC(C(c2ccccc2)n2cc(NC(=O)c3n[nH]c4c3CCC(C)(C)C4)cn2)C1` (single isomer, unassigned) [Example 37b, N-(1-((1-acetylazetidin-3-yl)(phenyl)methyl)-1H-pyrazol-4-yl)-6,6-dimethyl-4,5,6,7-tetrahydro-1H-indazole-3-carboxamide], the Ki worked out at 2 nM.

Take `CC1(C)CCc2c(C(=O)Nc3cnn(C(c4cccc(Cl)c4)C4CCOCC4)c3)n[nH]c2C1` (single isomer, unassigned) [Example 115b, N-(1-((3-chlorophenyl)(tetrahydro-2H-pyran-4-yl)methyl)-1H-pyrazol-4-yl)-6,6-dimethyl-4,5,6,7-tetrahydro-1H-indazole-3-carboxamide]: the Ki turned out to be 7 nM.

In the case of `CC(c1ccncc1)n1cc(NC(=O)c2n[nH]c3c2CCC(C)(C)C3)cn1` (single isomer, unassigned) [Example 107a, 6,6-dimethyl-N-(1-(1-(pyridin-4-yl)ethyl)-1H-pyrazol-4-yl)-4,5,6,7-tetrahydro-1H-indazole-3-carboxamide], the Ki is 18 nM.

`CC1(C)CCc2c(C(=O)Nc3cnn(C(c4ccccc4)C4(F)CNC4)c3)n[nH]c2C1` (single isomer, unassigned) [Example 49b, N-(1-((3-fluoroazetidin-3-yl)(phenyl)methyl)-1H-pyrazol-4-yl)-6,6-dimethyl-4,5,6,7-tetrahydro-1H-indazole-3-carboxamide] gave a Ki of 2 nM.

`CC12Cc3[nH]nc(C(=O)Nc4cnn(C(c5ccccc5)C5CCCCS5(=O)=O)c4)c3CC1C2` (single isomer, unassigned) [Example 143a, N-(1-((1,1-dioxidotetrahydro-2H-thiopyran-2-yl)(phenyl)methyl)-1H-pyrazol-4-yl)-5a-methyl-1,4,4a,5,5a,6-hexahydrocyclopropa[f]indazole-3-carboxamide] registered a Ki of under 0.1 nM.

`CC1(C)CCc2c(C(=O)Nc3cnn(C(CCN4CC(F)(F)C4)c4ccccc4)c3)n[nH]c2C1` (single isomer, unassigned) [Example 121b, N-(1-(3-(3,3-difluoroazetidin-1-yl)-1-phenylpropyl)-1H-pyrazol-4-yl)-6,6-dimethyl-4,5,6,7-tetrahydro-1H-indazole-3-carboxamide] came in with a Ki of 1 nM.

`CC[C@@H](c1ccccc1)n1cc(NC(=O)c2n[nH]c3c2CC2CC2C3)cn1` (single isomer, unassigned) [Example 24a] had a Ki of 9.4 nM.

`CC1(C)CCc2c(C(=O)Nc3cnn(C(CN4CCC4)c4ccccc4)c3)n[nH]c2C1` (single isomer, unassigned) [Example 57b, N-(1-(2-(azetidin-1-yl)-1-phenylethyl)-1H-pyrazol-4-yl)-6,6-dimethyl-4,5,6,7-tetrahydro-1H-indazole-3-carboxamide]: the Ki was determined as 12 nM.

Take `CC1(C)CCc2c(C(=O)Nc3cnn(C(CN4CCOCC4)c4ccccc4)c3)n[nH]c2C1` (single isomer, unassigned) [Example 62a, 6,6-dimethyl-N-(1-(2-morpholino-1-phenylethyl)-1H-pyrazol-4-yl)-4,5,6,7-tetrahydro-1H-indazole-3-carboxamide]: the affinity, expressed as Ki, was 3 nM.
